Test results reported in publication PMC8815882, “Screening the pandemic response box identified benzimidazole carbamates, Olorofim and ravuconazole as promising drug candidates for the treatment of eumycetoma” (PLoS Neglected Tropical Diseases, 2022).
Converted amounts (≈) assume the structure as drawn. Like-named read-outs stand apart in the source and are kept apart here.

Experiments:
M. mycetomatis MM55 = experiment: IC50 determination, 2-fold dilution series 16 to 0.03125 μM; format: cell-based, Madurella mycetomatis; conditions: for IC50 / IC90: Madurella mycetomatis
[1] = test system: M. mycetomatis isolate MM55; experiment: M. mycetomatis grain infection model in G. mellonella larvae, survival; format: in vivo, Galleria mellonella; set-up: In vivo efficacy, Larvae survival %: concentration or dose not given beside the values; conditions: for Effect on larvae survival Day 4 (words): day four
[2] = test system: ten different M. mycetomatis isolates; experiment: MIC / MIC50 determination (XTT) in ten M. mycetomatis isolates; format: cell-based, Madurella mycetomatis; conditions: Madurella mycetomatis
[3] = test system: M. mycetomatis genome strain MM55; experiment: CLSI M38-A2 based in vitro susceptibility screening (XTT or resazurin), growth at fixed concentration; format: cell-based, Madurella mycetomatis; conditions: Madurella mycetomatis
[4] = MM55, Table 2, M. mycetomatis MM55, read-out: IC50
[5] = MM55, mean, read-out: IC50 mean
[6] = MM55, replicate 1, read-out: IC50 1
[7] = MM55, replicate 1, read-out: IC90 1
[8] = MM55, replicate 2, read-out: IC50 2
[9] = MM55, replicate 2, read-out: IC90 2
[10] = MM55, replicate 3, read-out: IC50 3
[11] = MM55, replicate 3, read-out: IC90 3
[12] = 20 μM per larvae, vs infected control
[13] = median MIC over ten M. mycetomatis isolates, no asterisk, read-out: MIC50
[14] = over the isolates tested, read-out: MIC50 mean
[15] = isolate CBS247.48, read-out: MIC CBS247.48
[16] = isolate MM14, read-out: MIC MM14
[17] = isolate MM45, read-out: MIC MM45
[18] = isolate MM55, read-out: MIC MM55
[19] = isolate ParijsAl1, read-out: MIC ParijsAl1
[20] = isolate Peru72012, read-out: MIC Peru72012
[21] = mean, read-out: Percentage survival at 25um, 25 uM mean
[22] = replicate A, read-out: Percentage survival at 25um, 25 um A
[23] = replicate B, read-out: Percentage survival at 25um, 25 uM B
[24] = replicate C, read-out: Percentage survival at 25um, 25 uM C
[25] = 100 uM, mean, read-out: Percentage survival at 100um, 100 uM mean
[26] = 100 uM, replicate (first column), read-out: Percentage survival at 100um, 100 uM A
[27] = 100 uM, replicate (second column), read-out: Percentage survival at 100um, 100 uM A
[28] = 100 uM, replicate (third column), read-out: Percentage survival at 100um, 100 uM A
[29] = G. mellonella larvae infected with M. mycetomatis

Row | SMILES | Drug static or cidal (M. mycetomatis MM55) | IC50 (M. mycetomatis MM55; [4]) [nM] | IC90 (M. mycetomatis MM55; MM55, read-out: IC90 mean) [µM] | IC50 (M. mycetomatis MM55; [6]) [nM] | IC90 (M. mycetomatis MM55; [7]) [µM] | IC50 (M. mycetomatis MM55; [8]) [nM] | IC90 (M. mycetomatis MM55; [9]) [µM] | IC50 (M. mycetomatis MM55; [10]) [nM] | IC90 (M. mycetomatis MM55; [11]) [µM] | MIC50 [2, 13] [µM] | MIC [2, 15] [µM] | MIC [2, 16] [µM] | MIC [2, 17] [µM] | MIC [2, 18] [µM] | MIC ([2]; isolate P1, read-out: MIC P1) [µM] | MIC [2, 19] [µM] | MIC [2, 20] [µM] | MIC ([2]; isolate So1, read-out: MIC So1) [µM] | MIC ([2]; isolate i1, read-out: MIC i1) [µM] | MIC ([2]; isolate i11, read-out: MIC i11) [µM] | also measured
1 | COC(=O)Nc1nc2c(C)cccc2[nH]1 [MMV1782387] | Static | 3220 | > 25 | 2880 | > 25 | 3520 | 6.2 | 3250 | > 25 | 4 (≈ 0.821 µg/mL) | 4 (≈ 0.821 µg/mL) | 4 (≈ 0.821 µg/mL) | 4 (≈ 0.821 µg/mL) | 4 (≈ 0.821 µg/mL) | 4 (≈ 0.821 µg/mL) | 4 (≈ 0.821 µg/mL) | 4 (≈ 0.821 µg/mL) | 4 (≈ 0.821 µg/mL) | 4 (≈ 0.821 µg/mL) | 4 (≈ 0.821 µg/mL) | IC50 (M. mycetomatis MM55; [5]): 3220 nM; Larvae survival rate on day ten ([1]; 20 μM per larvae at 4, 28, 52 h after infection, day ten): 28.9%; Effect on larvae survival Day 4 (words) [1, 12]: Increase survival; Effect on larvae survival Day 10 (words) ([1]; 20 μM per larvae, vs infected control, day ten): able to increase larvae survival; In vivo efficacy, Enhanced survival compared to control? ([1]; in vivo): yes **; In vivo efficacy, Larvae survival % ([1]; in vivo): 28.9%; MIC50 ([2]; Table 3 and Fig 5, benzimidazole carbamates, M. mycetomatis, read-out: MIC50): 4 µM (≈ 0.821 µg/mL); MIC50 [2, 14]: 4 µM (≈ 0.821 µg/mL); activity at 25 µM [3, 21]: 4.41%; activity at 25 µM [3, 22]: 0.37%; activity at 25 µM [3, 23]: 7.58%; activity at 25 µM [3, 24]: 5.29%; activity at 100 µM [3, 25]: 15.6%; activity at 100 µM [3, 26]: 4.59%; activity at 100 µM [3, 27]: 6.95%; activity at 100 µM [3, 28]: 35.2%
2 | CCCCC(CC)CNC(=N)NC(=N)NCCCCCCNC(=N)NC(=N)NCC(CC)CCCC (stereo not drawn) [MMV396785, Alexidine, reference compound] |  | 2560 |  |  |  |  |  |  |  | 2 (≈ 1.02 µg/mL) | 1 (≈ 0.509 µg/mL) | 2 (≈ 1.02 µg/mL) | 2 (≈ 1.02 µg/mL) | 2 (≈ 1.02 µg/mL) | 2 (≈ 1.02 µg/mL) | 4 (≈ 2.04 µg/mL) | 4 (≈ 2.04 µg/mL) | 2 (≈ 1.02 µg/mL) | 2 (≈ 1.02 µg/mL) | 2 (≈ 1.02 µg/mL) | Drug static or cidal (M. mycetomatis MM55; M. mycetomatis): Static; IC50 (M. mycetomatis MM55; MM55, mean of replicates, read-out: IC50 mean): 2560 nM; IC90 (M. mycetomatis MM55; MM55, mean of replicates, read-out: IC90 mean): 4.26 µM; IC50 (M. mycetomatis MM55; MM55, replicate 1, read-out: IC50 1 um): 2160 nM; IC90 (M. mycetomatis MM55; MM55, replicate 1, read-out: IC90 1 um): 3.95 µM; IC50 (M. mycetomatis MM55; MM55, replicate 2, read-out: IC50 2 um): 2700 nM; IC90 (M. mycetomatis MM55; MM55, replicate 2, read-out: IC90 2 um): 4.4 µM; IC50 (M. mycetomatis MM55; MM55, replicate 3, read-out: IC50 3 um): 2830 nM; IC90 (M. mycetomatis MM55; MM55, replicate 3, read-out: IC90 3 um): 4.42 µM; In vivo efficacy, Enhanced survival compared to control? [1, 29]: no; In vivo efficacy, Larvae survival % [1, 29]: 2.2%; MIC50 ([2]; over the tested M. mycetomatis isolates, read-out: MIC50 mean): 2 µM (≈ 1.02 µg/mL); activity at 25 µM ([3]; mean of three, M. mycetomatis MM55, read-out: Percentage survival at 25um, 25 uM mean): 1.02%; activity at 25 µM ([3]; replicate A, M. mycetomatis MM55, read-out: Percentage survival at 25um, 25 um A): -0.617%; activity at 25 µM ([3]; replicate B, M. mycetomatis MM55, read-out: Percentage survival at 25um, 25 uM B): 1.64%; activity at 25 µM ([3]; replicate C, M. mycetomatis MM55, read-out: Percentage survival at 25um, 25 uM C): 2.05%; activity at 100 µM ([3]; 100 uM, mean of three, M. mycetomatis MM55, read-out: Percentage survival at 100um, 100 uM mean): 7.33%; activity at 100 µM ([3]; 100 uM, replicate 1, M. mycetomatis MM55, read-out: Percentage survival at 100um, 100 uM A (first replicate column)): -1.99%; Percent fungal survival at 100 µM ([3]; 100 uM, replicate 2, M. mycetomatis MM55, read-out: Percentage survival at 100um, 100 uM A (second replicate column)): 7.87%; activity at 100 µM ([3]; 100 uM, replicate 3, M. mycetomatis MM55, read-out: Percentage survival at 100um, 100 uM A (third replicate column)): 16.1%
3 | Clc1cc(Cl)c2c(c1)CCc1ccccc1C2n1ccnc1 (stereo not drawn) [MMV1634492, Eberconazole, reference compound] | Cidal | 720 | 1.29 | 580 | 1.3 | 780 | 1.21 | 800 | 1.35 | 0.5 (≈ 0.165 µg/mL) | 2 (≈ 0.658 µg/mL) | 0.125 (≈ 0.0412 µg/mL) | 4 (≈ 1.32 µg/mL) | 0.5 (≈ 0.165 µg/mL) | 1 (≈ 0.329 µg/mL) | 0.125 (≈ 0.0412 µg/mL) | 0.5 (≈ 0.165 µg/mL) | 0.125 (≈ 0.0412 µg/mL) | 0.0625 (≈ 0.0206 µg/mL) | 1 (≈ 0.329 µg/mL) | Effect on larvae survival Day 4 (words) [1, 12]: prolonged larvae survival; In vivo efficacy, Enhanced survival compared to control? ([1]; in vivo): no; In vivo efficacy, Larvae survival % ([1]; in vivo): 13.3%; MIC50 [2, 14]: 0.5 µM (≈ 0.165 µg/mL); activity at 25 µM [3, 21]: -1.12%; activity at 25 µM [3, 22]: -3.02%; activity at 25 µM [3, 23]: -4.98%; activity at 25 µM [3, 24]: 4.64%; activity at 100 µM [3, 25]: 3.3%; activity at 100 µM [3, 26]: -3.84%; activity at 100 µM [3, 27]: 6.56%; activity at 100 µM [3, 28]: 7.19%
4 | O[C@@](Cn1cnnn1)(c1ccc(F)cc1F)C(F)(F)c1ccc(-c2ccc(OCC(F)(F)F)cc2)cn1 [MMV1634386, Oteseconazole, reference compound] | Cidal | 2660 | 5.17 | 2150 | 5 | 2780 | 5 | 3060 | 5.5 | 1 (≈ 0.527 µg/mL) | 16 (≈ 8.44 µg/mL) | 1 (≈ 0.527 µg/mL) | 1 (≈ 0.527 µg/mL) | 4 (≈ 2.11 µg/mL) | 2 (≈ 1.05 µg/mL) | 2 (≈ 1.05 µg/mL) | 4 (≈ 2.11 µg/mL) | 1 (≈ 0.527 µg/mL) | 0.25 (≈ 0.132 µg/mL) | 8 (≈ 4.22 µg/mL) | IC50 (M. mycetomatis MM55; [5]): 2660 nM; In vivo efficacy, Enhanced survival compared to control? ([1]; in vivo): no; In vivo efficacy, Larvae survival % ([1]; in vivo): 11.1%; MIC50 [2, 14]: 1 µM (≈ 0.527 µg/mL); activity at 25 µM [3, 21]: -1.26%; activity at 25 µM [3, 22]: -1.75%; activity at 25 µM [3, 23]: -2.55%; activity at 25 µM [3, 24]: 0.501%; activity at 100 µM [3, 25]: 7.07%; activity at 100 µM [3, 26]: -1.99%; activity at 100 µM [3, 27]: 9.06%; activity at 100 µM [3, 28]: 14.2%
